Test results taken from patent publication US5312816A, “Method of combatting osteoporosis in mammalian subjects, utilizing organic boron compounds” (priority 1993, dated 1994).
pIC50: −log10 of the molar value.

Experiments:
[1] = molecular target: T1, Cathepsin D (Mus musculus, UniProt P18242); assay: Mouse hepatic lysosomal cathepsin D activity; type: biochemical; conditions: Table V; mouse hepatic, 60 min incubation; read-out: Cathepsin D IC50
T1 construct: azocasein assay pH 5.0
Excerpt: (§1) 1. Cf1 male mouse hepatic 10% homogenates in 0.25M sucrose+0.001MEDTA,pH 7.2.
(§2) Lysosomal Enzymes - free and total [triton X-100].
2. Acid Cathepsin D -azocasein-pH 5.0, hydrolytic azo-peptide produce 366 nm.
Cathepsin azo casein activity -

[2] = system: Acid phosphatase; assay: Mouse macrophage acid phosphatase activity; type: cell-based; conditions: Table VII; mouse macrophage cultured cells, 60 min incubation; read-out: Acid Phosphatase IC50
Excerpt: Mouse macrophages J774A.1 BALB/c

[3] = molecular target: Elastase; assay: Mouse hepatic elastase activity; type: biochemical; conditions: Table VI, 60 min incubation
Excerpt: as §1
(§3) 2. Elastase- N-succinyl-L-alanyl-L-alanine-p-nitroanilide, pH 8.0, p-nitro anilide 410 nm.
Elastase activity - in vitro

[4] = system: Aryl sulphatase; assay: Human osteoporosis fibroblasts aryl sulphatase activity; type: cell-based
Excerpt: 3. Aryl sulphatase- p-nitrocatechol sulfate, pH
5. 8 p-nitro-catechol product 510 nm.

[5] = molecular target: Acid phosphatase; assay: Mouse hepatic lysosomal acid phosphatase activity; type: biochemical; conditions: Table V; mouse hepatic, 60 min incubation
Excerpt: as §1, §2
(§4) 1. Acid phosphatase -beta glycerol-3-phosphate, pH 5.0, released IP 720 nm.
Acid phosphatase activity -

[6] = system: Trypsin; assay: Human osteoporosis fibroblasts trypsin (BAEE) activity; type: cell-based
Excerpt: (§5) 1. Trypsin- N-benzoyl-L-arginine ethyl ester pH 8.0, hydrolytic product 253 nm.

[7] = molecular target: Clostridium histolyticum Collagenase Type I; assay: Commercial collagenase type I; type: biochemical; conditions: Table IX; commercial enzyme preparation
Excerpt: 3. Collagenase I, Clostridium histolyticum, bone, skin, tendon, blood vessel, dentine, GI. substrate: rat collagen, N-[propionate-2-3-^3 H] propionylated measured as dpm released.

[8] = molecular target: T2, 5'-lipoxygenase (Mus musculus, UniProt P48999); assay: Mouse hepatic 5'-lipoxygenase activity; type: biochemical; conditions: Table VI; mouse hepatic, 60 min incubation; read-out: 5'-lipoxygenase IC50
T2 construct: Cf1 male mouse hepatic 10% homogenates; from tissue; host or cells: CF1 male mouse liver, 10% homogenate
T2 sequence (P48999 1-674): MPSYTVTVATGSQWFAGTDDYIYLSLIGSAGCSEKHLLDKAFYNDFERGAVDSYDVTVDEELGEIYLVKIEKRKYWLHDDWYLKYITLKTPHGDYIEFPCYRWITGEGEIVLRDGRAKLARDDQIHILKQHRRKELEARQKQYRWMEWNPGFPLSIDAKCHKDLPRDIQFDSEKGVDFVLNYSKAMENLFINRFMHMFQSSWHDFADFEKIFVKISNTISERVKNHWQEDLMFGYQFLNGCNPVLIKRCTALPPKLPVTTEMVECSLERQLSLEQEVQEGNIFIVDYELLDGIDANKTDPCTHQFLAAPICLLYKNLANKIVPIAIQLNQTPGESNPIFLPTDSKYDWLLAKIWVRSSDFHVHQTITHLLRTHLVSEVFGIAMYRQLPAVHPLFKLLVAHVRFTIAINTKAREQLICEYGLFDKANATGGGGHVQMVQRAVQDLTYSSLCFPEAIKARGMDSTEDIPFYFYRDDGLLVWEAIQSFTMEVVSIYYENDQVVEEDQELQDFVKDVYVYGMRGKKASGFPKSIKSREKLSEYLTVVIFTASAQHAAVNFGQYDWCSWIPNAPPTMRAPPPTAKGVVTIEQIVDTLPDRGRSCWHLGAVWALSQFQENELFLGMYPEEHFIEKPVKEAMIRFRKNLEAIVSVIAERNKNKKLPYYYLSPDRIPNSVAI
Excerpt: as §1
5'-lipoxygenase Mylari, B.L., et al, J. Med.

[9] = system: lysosomal and proteolytic enzymes; assay: Osteoporosis fibroblasts lysosomal and proteolytic enzymes (statement); type: cell-based, human
[10] = system: Elastase; assay: Human osteoporosis fibroblasts elastase activity; type: cell-based
Excerpt: as §3

[11] = system: Trypsin; assay: Mouse hepatic trypsin activity; type: biochemical; conditions: Table VI; mouse hepatic, 60 min incubation; read-out: Trypsin IC50
Excerpt: as §1, §5

[12] = system: Cf1 male mice; assay: Writhing reflex, 0.6% acetic acid; type: in vivo; conditions: Mus musculus, ip; Table IV
[13] = molecular target: Clostridium histolyticum Collagenase Type II; assay: Commercial collagenase type II; type: biochemical; conditions: Table IX; commercial enzyme preparation
Excerpt: 4. Collagenase II, Clostridium histolyticum, cartilage collagen.

[14] = system: Trypsin; assay: Mouse macrophage trypsin (BAEE) activity; type: cell-based; conditions: Table VIII; mouse macrophages, 60 min incubation; read-out: Trypsin BAEE IC50
Excerpt: 3. Mouse macrophages J774A.1 BALB/c

[15] = system: Acid phosphatase; assay: Human osteoporosis fibroblasts acid phosphatase activity; type: cell-based
Excerpt: as §4

[16] = system: Aryl sulphatase; assay: Mouse macrophage aryl sulphatase activity; type: cell-based; conditions: Table VII; mouse macrophage cultured cells, 60 min incubation; read-out: Aryl Sulphatase IC50
Excerpt: Mouse macrophages J774A.1 BALB/c

[17] = system: Pg-E2 synthesis; assay: 3H-Arachidonic acid conversion to Pg-E2, macrophage; type: cell-based, mouse
[18] = system: Pg-E2 synthesis; assay: 3H-Arachidonic acid conversion to Pg-E2, CF1 hepatic liver; type: biochemical, mouse
[19] = system: Elastase; assay: Mouse macrophage elastase activity; type: cell-based; conditions: Table VIII; mouse macrophages, 60 min incubation; read-out: Elastase IC50
Excerpt: Mouse macrophages J774A.1 BALB/c

[20] = system: Prostaglandin cyclooxygenase; assay: Human osteoporosis fibroblasts prostaglandin cyclooxygenase activity; type: cell-based; conditions: Table XI, 60 min incubation, read-out: Prostaglandin Cyclooxygense IC50

T1 sequence (P18242 65-410): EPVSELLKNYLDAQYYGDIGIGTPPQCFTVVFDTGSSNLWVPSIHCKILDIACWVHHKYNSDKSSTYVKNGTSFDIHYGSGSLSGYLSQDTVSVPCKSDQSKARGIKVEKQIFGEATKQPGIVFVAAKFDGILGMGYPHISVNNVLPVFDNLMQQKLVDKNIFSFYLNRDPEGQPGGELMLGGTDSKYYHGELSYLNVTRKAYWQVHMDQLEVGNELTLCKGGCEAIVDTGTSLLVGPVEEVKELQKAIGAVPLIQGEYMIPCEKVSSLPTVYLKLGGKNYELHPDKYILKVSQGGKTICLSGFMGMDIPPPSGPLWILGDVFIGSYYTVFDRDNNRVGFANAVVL

`CCCCCCCCCCCCCCCC[N+](C)(C)[BH2-]C(=O)O` [Compound 7, N,N-Dimethylhexadecylamine-carboxyborane] was tested, and the pIC50 [1] was 5.55, the pIC50 [2] was 6.03 and the pIC50 [3] was 4.30. The pIC50 ([4]; Table VIIIA, osteoporosis fibroblasts in vitro, read-out: Aryl Sulfatase IC-50) was 5.05, the pIC50 ([4]; Table X, human osteoporosis fibroblasts, read-out: Aryl Sulphatase IC50) was 5.05 and the pIC50 [5] was 5.05. The pIC50 ([6]; Table VIIIA, osteoporosis fibroblasts in vitro, read-out: Trypsin (BAEE) IC-50) was 5.13, the pIC50 ([6]; Table XI, human osteoporosis fibroblasts, 60 min incubation, read-out: Trypsin BAEE IC50) was 5.13 and the pIC50 [7] was 3.21. The pIC50 [8] was 4.25, the “inhibition of lysosomal and proteolytic enzymes of osteoporosis fibroblasts” value [9] was “potent inhibitors” and the pIC50 ([10]; Table VIIIA, osteoporosis fibroblasts in vitro, read-out: Elastase IC-50) was 5.41. It also gave a pIC50 ([10]; Table XI, human osteoporosis fibroblasts, 60 min incubation, read-out: Elastase IC50) of 5.41, a pIC50 [11] of 5.94 and a response vs control in vivo at 20 mg/kg [12] of 54%. It also gave a pIC50 [13] of 3.96, a pIC50 [14] of 5.90 and a pIC50 ([15]; Table VIIIA, osteoporosis fibroblasts in vitro, read-out: Acid Phosphatase IC-50) of 4.78. For the same compound, the pIC50 ([15]; Table X, human osteoporosis fibroblasts, read-out: Acid Phosphatase IC50) was 4.78, the pIC50 [16] was 5.01 and the “macrophage Pg-E2 synthesis reduced” value [17] was 20%. For the same compound, the “3H-Arachidonic acid conversion to Pg-E2 reduced” value ([17]; macrophage) was 29%, the “hepatic Pg-E2 synthesis reduced” value [18] was 32% and the “3H-Arachidonic acid conversion to Pg-E2 reduced” value ([18]; CF1 hepatic liver) was 43%. The pIC50 [19] was 5.74 and the pIC50 [20] was 5.17.
